From paper PMC7311426, “An amphipathic peptide with antibiotic activity against multidrug-resistant Gram-negative bacteria” (Nature Communications, 2020)
In brackets after ≈: the same amount, converted by molar mass. Like-named read-outs stand apart in the source and are kept apart here.

Legend:
E. coli = system: E. coli; design: method as in Hasman H, et al. Euro. Surveill. (2015) 20:49; details: E. coli ESBL20150072, mcr-1 pos; ESBL; CAMHB; comparator antibiotics; ref Hasman H, et al. Euro. Surveill. (2015) 20:49; cited from earlier work
[1] = system: P. aeruginosa clinical isolates; assay: microbe, parasite or virus in culture
How it was run: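 MIC90 from CLSI broth microdilution (M07-A9) in two clinical-isolate panels. US panel (331 isolates, 2010-2012): AA139 diluted in 0.01% acetic acid/0.1% BSA. Worldwide panel (445 isolates, 2011-2013, four regions): CAMHB, with 0.002% Tween 80 added for AA139 and polymyxin B.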

P. aeruginosa = assay: microbe, parasite or virus in culture; type: cell-based, Pseudomonas aeruginosa; design: MIC, Survanta (5%) replicates: unit not given beside the values; details: for MIC: Pseudomonas aeruginosa
K. pneumoniae = assay: microbe, parasite or virus in culture; type: cell-based, Klebsiella pneumoniae; details: for MIC: Klebsiella pneumoniae
E. coli ATCC 25922 = assay: microbe, parasite or virus in culture; type: cell-based, Escherichia coli; design: MIC, Survanta (5%) replicates: unit not given beside the values; details: for MIC, Survanta (5%) replicates: BMD with 5% Survanta lung surfactant; for MIC: Escherichia coli, E. coli ATCC 25922, n=2 to 6, mode or median
How it was run: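 Broth microdilution MIC in Mueller Hinton broth, 12-point 2-fold series from 128 or 64 down to 0.06 or 0.03 μg mL^−1, 5 × 10^5 CFU mL^−1 inoculum. Read visually after 18-20 h at 37 °C without shaking; n ≥ 6. Additional tests in CAMHB, and in MHB with 1% agarose.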

[2] = Worldwide isolates 2011-2013, P. aeruginosa n = 111

Compound: C[C@@H](O)[C@H]1C(=O)N2C(C(=O)O)=C(S[C@@H]3CN[C@H](C(=O)N(C)C)C3)[C@H](C)[C@H]12 [Meropenem, meropenem, reference compound]
- BMD MIC (E. coli): ≤1 µg/mL
- MIC90 ([1]; Pseudomonas aeruginosa, US isolates 2010–2012, P. aeruginosa Non-MDR, n = 41): 16 µg/mL (≈ 41.7 µM)
- MIC90 ([1]; Pseudomonas aeruginosa, US isolates 2010–2012, P. aeruginosa XDR, n = 37): > 16 µg/mL
- MIC50 [1, 2]: 1 µg/mL (≈ 2.61 µM)
- MIC90 [1, 2]: > 16 µg/mL

Compound: COc1cc(Cc2cnc(N)nc2N)cc(OC)c1OC [Trimethoprim]
- MIC, Serum (50%) (P. aeruginosa): >64
- MIC, Serum (50%) replicates (P. aeruginosa): >64
- MIC, Survanta (5%) (P. aeruginosa): >64
- MIC, Survanta (5%) replicates (P. aeruginosa): >64
- MIC, Survanta (5%) (P. aeruginosa; P. aeruginosa FADDI-070, MDR, PmxR, BMD with 5% Survanta lung surfactant, mode, or median where no mode, n=4 to 6, where n=2 differs the higher value): >64
- MIC, Survanta (5%) replicates (P. aeruginosa; P. aeruginosa FADDI-070, MDR, PmxR, BMD with 5% Survanta lung surfactant, replicate 1): >64
- MIC, Survanta (5%) replicates (P. aeruginosa; P. aeruginosa FADDI-070, MDR, PmxR, BMD with 5% Survanta lung surfactant, replicate 2): >64
- MIC, Survanta (5%) replicates (P. aeruginosa; P. aeruginosa FADDI-070, MDR, PmxR, BMD with 5% Survanta lung surfactant, replicate 3): >64
- MIC, Survanta (5%) replicates (P. aeruginosa; P. aeruginosa FADDI-070, MDR, PmxR, BMD with 5% Survanta lung surfactant, replicate 4): >64
- MIC, Serum (50%) replicates (P. aeruginosa; P. aeruginosa FADDI-070, MDR, PmxR, BMD with 50% human serum, replicate 1): >64
- MIC, Serum (50%) replicates (P. aeruginosa; P. aeruginosa FADDI-070, MDR, PmxR, BMD with 50% human serum, replicate 2): 64
- MIC, Serum (50%) (P. aeruginosa; P. aeruginosa FADDI-070, MDR, PmxR, BMD with 50% human serum, where n=2 differs the higher value is recorded): ≥64
- MIC (P. aeruginosa; ATCC27853, read-out: MIC, Serum (50%)): > 64 µg/mL
- MIC (P. aeruginosa; ATCC27853, read-out: MIC, Survanta (5%)): > 64 µg/mL
- MIC (P. aeruginosa; read-out: MIC, Serum (50%)): ≥ 64 µg/mL
- MIC (P. aeruginosa; read-out: MIC, Survanta (5%)): > 64 µg/mL
- MIC, Serum (50%) (K. pneumoniae): 0.5
- MIC, Serum (50%) replicates (K. pneumoniae): 0.5
- MIC, Survanta (5%) (K. pneumoniae): 1
- MIC, Survanta (5%) (K. pneumoniae; K. pneumoniae ATCC 700603, ESBL, OXA-2/SHV-18, BMD with 5% Survanta lung surfactant, mode, or median where no mode, n=4 to 6, where n=2 differs the higher value): 4
- MIC, Survanta (5%) replicates (K. pneumoniae; K. pneumoniae ATCC 700603, ESBL, OXA-2/SHV-18, BMD with 5% Survanta lung surfactant, replicate 1): 4
- MIC, Survanta (5%) replicates (K. pneumoniae; K. pneumoniae ATCC 700603, ESBL, OXA-2/SHV-18, BMD with 5% Survanta lung surfactant, replicate 2): 2
- MIC, Serum (50%) (K. pneumoniae; K. pneumoniae ATCC 700603, ESBL, OXA-2/SHV-18, BMD with 50% human serum, mode, or median where no mode, n=4 to 6, where n=2 differs the higher value): 32
- MIC, Serum (50%) replicates (K. pneumoniae; K. pneumoniae ATCC 700603, ESBL, OXA-2/SHV-18, BMD with 50% human serum, replicate 1): 32
- MIC, Serum (50%) replicates (K. pneumoniae; K. pneumoniae ATCC 700603, ESBL, OXA-2/SHV-18, BMD with 50% human serum, replicate 2): 16
- MIC, Survanta (5%) (K. pneumoniae; K. pneumoniae BAA-2146, NDM-1, BMD with 5% Survanta lung surfactant, mode, or median where no mode, n=4 to 6, where n=2 differs the higher value): >64
- MIC, Survanta (5%) replicates (K. pneumoniae; K. pneumoniae BAA-2146, NDM-1, BMD with 5% Survanta lung surfactant, replicate 1): >64
- MIC, Survanta (5%) replicates (K. pneumoniae; K. pneumoniae BAA-2146, NDM-1, BMD with 5% Survanta lung surfactant, replicate 2): >64
- MIC, Survanta (5%) replicates (K. pneumoniae; K. pneumoniae BAA-2146, NDM-1, BMD with 5% Survanta lung surfactant, replicate 3): >64
- MIC, Survanta (5%) replicates (K. pneumoniae; K. pneumoniae BAA-2146, NDM-1, BMD with 5% Survanta lung surfactant, replicate 4): >64
- MIC (K. pneumoniae; ATCC13883, read-out: MIC, Serum (50%)): 0.5 µg/mL (≈ 1.72 µM)
- MIC (K. pneumoniae; ATCC13883, read-out: MIC, Survanta (5%)): 1 µg/mL (≈ 3.44 µM)
- MIC (K. pneumoniae; ATCC700603, read-out: MIC, Serum (50%)): 32 µg/mL (≈ 110 µM)
- MIC (K. pneumoniae; ATCC700603, read-out: MIC, Survanta (5%)): 4 µg/mL (≈ 13.8 µM)
- MIC (K. pneumoniae; BAA2146, read-out: MIC, Survanta (5%)): > 64 µg/mL
- MIC, Survanta (5%) replicates (E. coli ATCC 25922; E. coli ATCC 25922, FDA control strain, replicate 1): 1
- MIC, Survanta (5%) replicates (E. coli ATCC 25922; E. coli ATCC 25922, FDA control strain, replicate 2): 1
- MIC, Survanta (5%) replicates (E. coli ATCC 25922; E. coli ATCC 25922, FDA control strain, replicate 3): 1
- MIC, Survanta (5%) replicates (E. coli ATCC 25922; E. coli ATCC 25922, FDA control strain, replicate 4): 1
- MIC, Serum (50%) (E. coli ATCC 25922; E. coli ATCC 25922, FDA control strain, BMD with 50% human serum, mode, or median where no mode, n=4 to 6, where n=2 differs the higher value): 4
- MIC, Serum (50%) replicates (E. coli ATCC 25922; E. coli ATCC 25922, FDA control strain, BMD with 50% human serum, replicate 1): 4
- MIC, Serum (50%) replicates (E. coli ATCC 25922; E. coli ATCC 25922, FDA control strain, BMD with 50% human serum, replicate 2): 2
- MIC, Serum (50%) replicates (E. coli ATCC 25922; E. coli ATCC 25922, FDA control strain, BMD with 50% human serum, replicate 3): 4
- MIC, Serum (50%) replicates (E. coli ATCC 25922; E. coli ATCC 25922, FDA control strain, BMD with 50% human serum, replicate 4): 4
- MIC (E. coli ATCC 25922; ATCC25922, read-out: MIC, SURVANTA (5%), MHB + 5% (v/v) lung surfactant): 1 µg/mL
- MIC (E. coli ATCC 25922; ATCC25922, read-out: MIC, Serum (50%), MHB + 50% (v/v) human serum): 4 µg/mL

Compound: polymyxin B [PolymyxinB, reference compound]
- BMD MIC (E. coli): 4 µg/mL
- MIC50 [1, 2]: 0.12 µg/mL
- MIC90 [1, 2]: 0.25 µg/mL
